According to PubChem BioAssay AID1259407 (Chemical Carcinogenesis Research Information System (CCRIS), 2018):
Active and inactive are the calls of the source. No rule for the calls is given here.

System: CCRIS mutagenicity, Ames/micronucleus/aberration tests
Assay: CCRIS mutagenicity studies
[1] = Test System: AMES SALMONELLA TYPHIMURIUM, Strain/Indicator: TA98, Metabolic Activation: NONE, Method: STANDARD PLATE
[2] = Test System: AMES SALMONELLA TYPHIMURIUM, Strain/Indicator: TA98, Metabolic Activation: RAT, LIVER, S-9, AROCLOR 1254, Method: STANDARD PLATE
[3] = Test System: AMES SALMONELLA TYPHIMURIUM, Strain/Indicator: TA100, Metabolic Activation: NONE, Method: STANDARD PLATE
[4] = Test System: AMES SALMONELLA TYPHIMURIUM, Strain/Indicator: TA100, Metabolic Activation: RAT, LIVER, S-9, AROCLOR 1254, Method: STANDARD PLATE
[5] = Test System: AMES SALMONELLA TYPHIMURIUM, Strain/Indicator: TA100, Metabolic Activation: NONE, Method: PREINCUBATION
[6] = Test System: AMES SALMONELLA TYPHIMURIUM, Strain/Indicator: TA102, Metabolic Activation: NONE, Method: PREINCUBATION
[7] = Test System: AMES SALMONELLA TYPHIMURIUM, Strain/Indicator: TA102, Metabolic Activation: RAT, LIVER, S-9, AROCLOR 1254, Method: PREINCUBATION
[8] = Test System: AMES SALMONELLA TYPHIMURIUM, Strain/Indicator: TA98, Metabolic Activation: NONE, Method: PREINCUBATION
[9] = Test System: AMES SALMONELLA TYPHIMURIUM, Strain/Indicator: TA1535, Metabolic Activation: NONE, Method: PREINCUBATION
[10] = Test System: AMES SALMONELLA TYPHIMURIUM, Strain/Indicator: TA1537, Metabolic Activation: NONE, Method: PREINCUBATION

## O=S(=O)(c1cc(Cl)cc(Cl)c1O)c1cc(Cl)cc(Cl)c1O
Test System: AMES SALMONELLA TYPHIMURIUM, Strain/Indicator: TA97, Metabolic Activation: NONE, Method: STANDARD PLATE
  mutagenic call: inactive; negative
Test System: AMES SALMONELLA TYPHIMURIUM, Strain/Indicator: TA97, Metabolic Activation: RAT, LIVER, S-9, AROCLOR 1254, Method: STANDARD PLATE
  mutagenic call: inactive; negative
[1]
  mutagenic call: inactive; negative
[2]
  mutagenic call: inactive; negative
[3]
  mutagenic call: inactive; negative
[4]
  mutagenic call: inactive; negative
Test System: AMES SALMONELLA TYPHIMURIUM, Strain/Indicator: TA102, Metabolic Activation: NONE, Method: STANDARD PLATE
  mutagenic call: inactive; negative
Test System: AMES SALMONELLA TYPHIMURIUM, Strain/Indicator: TA102, Metabolic Activation: RAT, LIVER, S-9, AROCLOR 1254, Method: STANDARD PLATE
  mutagenic call: inactive; negative

## CC1=C(O)C(=O)C(O)CO1 (stereo not given)
[5]
  mutagenic call: active; positive
Test System: AMES SALMONELLA TYPHIMURIUM, Strain/Indicator: TA100, Metabolic Activation: S-9, Method: PREINCUBATION
  mutagenic call: active; positive

## C1=Cc2c(ccc3nc4ccc5ccccc5c4cc23)CC1
Test System: AMES SALMONELLA TYPHIMURIUM, Strain/Indicator: TA98, Metabolic Activation: GUINEA PIG, LIVER, S-9, 3-METHYLCHOLANTHRENE, Method: STANDARD PLATE
  mutagenic call: active; positive
Test System: AMES SALMONELLA TYPHIMURIUM, Strain/Indicator: TA100, Metabolic Activation: GUINEA PIG, LIVER, S-9, 3-METHYLCHOLANTHRENE, Method: STANDARD PLATE
  mutagenic call: active; positive

## O=C(O)CCC(=O)O
Test System: AMES SALMONELLA TYPHIMURIUM, Strain/Indicator: TA97, Metabolic Activation: NONE, Method: PREINCUBATION
  mutagenic call: inactive; negative
Test System: AMES SALMONELLA TYPHIMURIUM, Strain/Indicator: TA97, Metabolic Activation: RAT, LIVER, S-9, AROCLOR 1254, Method: PREINCUBATION
  mutagenic call: inactive; negative
[6]
  mutagenic call: inactive; negative
[7]
  mutagenic call: inactive; negative

## O=C(O)c1ccc(S(=O)(=O)N(Cl)Cl)cc1
Test System: AMES SALMONELLA TYPHIMURIUM, Strain/Indicator: TA98, Metabolic Activation: HAMSTER, LIVER, S-9, AROCLOR 1254 (10%), Method: PREINCUBATION
  mutagenic call: inactive; negative
[8]
  mutagenic call: inactive; negative
Test System: AMES SALMONELLA TYPHIMURIUM, Strain/Indicator: TA98, Metabolic Activation: RAT, LIVER, S-9, AROCLOR 1254 (10%), Method: PREINCUBATION
  mutagenic call: inactive; negative
Test System: AMES SALMONELLA TYPHIMURIUM, Strain/Indicator: TA100, Metabolic Activation: HAMSTER, LIVER, S-9, AROCLOR 1254 (10%), Method: PREINCUBATION
  mutagenic call: inactive; negative
[5]
  mutagenic call: inactive; negative
Test System: AMES SALMONELLA TYPHIMURIUM, Strain/Indicator: TA100, Metabolic Activation: RAT, LIVER, S-9, AROCLOR 1254 (10%), Method: PREINCUBATION
  mutagenic call: inactive; negative
Test System: AMES SALMONELLA TYPHIMURIUM, Strain/Indicator: TA1535, Metabolic Activation: HAMSTER, LIVER, S-9, AROCLOR 1254 (10%), Method: PREINCUBATION
  mutagenic call: inactive; negative
[9]
  mutagenic call: inactive; negative
Test System: AMES SALMONELLA TYPHIMURIUM, Strain/Indicator: TA1535, Metabolic Activation: RAT, LIVER, S-9, AROCLOR 1254 (10%), Method: PREINCUBATION
  mutagenic call: inactive; negative
Test System: AMES SALMONELLA TYPHIMURIUM, Strain/Indicator: TA1537, Metabolic Activation: HAMSTER, LIVER, S-9, AROCLOR 1254 (10%), Method: PREINCUBATION
  mutagenic call: inactive; negative
[10]
  mutagenic call: inactive; negative
Test System: AMES SALMONELLA TYPHIMURIUM, Strain/Indicator: TA1537, Metabolic Activation: RAT, LIVER, S-9, AROCLOR 1254 (10%), Method: PREINCUBATION
  mutagenic call: inactive; negative

## CCc1ccc(/C=C/c2ccc([N+](=O)[O-])cc2)cc1
[1]
  mutagenic call: active; positive
Test System: AMES SALMONELLA TYPHIMURIUM, Strain/Indicator: TA98, Metabolic Activation: RAT, LIVER, S-9, AROCLOR, Method: STANDARD PLATE
  mutagenic call: active; positive
[3]
  mutagenic call: active; positive
Test System: AMES SALMONELLA TYPHIMURIUM, Strain/Indicator: TA100, Metabolic Activation: RAT, LIVER, S-9, AROCLOR, Method: STANDARD PLATE
  mutagenic call: active; positive

## CC(=O)CCC(C)=O
[8]
  mutagenic call: inactive; negative
Test System: AMES SALMONELLA TYPHIMURIUM, Strain/Indicator: TA98, Metabolic Activation: RAT, LIVER, S-9, AROCLOR 1254, Method: PREINCUBATION
  mutagenic call: inactive; negative
[5]
  mutagenic call: inactive; negative
Test System: AMES SALMONELLA TYPHIMURIUM, Strain/Indicator: TA100, Metabolic Activation: RAT, LIVER, S-9, AROCLOR 1254, Method: PREINCUBATION
  mutagenic call: inactive; negative
[6]
  mutagenic call: inactive; negative
[7]
  mutagenic call: inactive; negative

## COCC(O)Cn1cc([N+](=O)[O-])nc1C (stereo not given)
Test System: E. COLI, Strain/Indicator: CM561 EXRA, Metabolic Activation: NONE, Method: SUSPENSION/PLATE
  mutagenic call: active; positive
Test System: E. COLI, Strain/Indicator: CM561 EXRA, Metabolic Activation: RAT, LIVER, S-9, AROCLOR 1254, Method: SUSPENSION/PLATE
  mutagenic call: inactive; negative
Test System: E. COLI, Strain/Indicator: CM611 UVRA EXRA, Metabolic Activation: NONE, Method: SUSPENSION/PLATE
  mutagenic call: active; positive
Test System: E. COLI, Strain/Indicator: CM611 UVRA EXRA, Metabolic Activation: RAT, LIVER, S-9, AROCLOR 1254, Method: SUSPENSION/PLATE
  mutagenic call: active; positive

## Cc1cccc(O)c1C
[8]
  mutagenic call: inactive; negative
Test System: AMES SALMONELLA TYPHIMURIUM, Strain/Indicator: TA98, Metabolic Activation: RAT LIVER S-9, PHENOBARBITAL AND BETA-NAPHTHOFLAVONE, Method: PREINCUBATION
  mutagenic call: inactive; negative
[5]
  mutagenic call: inactive; negative
Test System: AMES SALMONELLA TYPHIMURIUM, Strain/Indicator: TA100, Metabolic Activation: RAT LIVER S-9, PHENOBARBITAL AND BETA-NAPHTHOFLAVONE, Method: PREINCUBATION
  mutagenic call: inactive; negative
[9]
  mutagenic call: inactive; negative
Test System: AMES SALMONELLA TYPHIMURIUM, Strain/Indicator: TA1535, Metabolic Activation: RAT LIVER S-9, PHENOBARBITAL AND BETA-NAPHTHOFLAVONE, Method: PREINCUBATION
  mutagenic call: inactive; negative
[10]
  mutagenic call: inactive; negative
Test System: AMES SALMONELLA TYPHIMURIUM, Strain/Indicator: TA1537, Metabolic Activation: RAT LIVER S-9, PHENOBARBITAL AND BETA-NAPHTHOFLAVONE, Method: PREINCUBATION
  mutagenic call: inactive; negative
Test System: AMES SALMONELLA TYPHIMURIUM, Strain/Indicator: TA1538, Metabolic Activation: NONE, Method: PREINCUBATION
  mutagenic call: inactive; negative
Test System: AMES SALMONELLA TYPHIMURIUM, Strain/Indicator: TA1538, Metabolic Activation: RAT LIVER S-9, PHENOBARBITAL AND BETA-NAPHTHOFLAVONE, Method: PREINCUBATION
  mutagenic call: inactive; negative
Test System: E.COLI, Strain/Indicator: WP2UVRA, Metabolic Activation: NONE, Method: PREINCUBATION
  mutagenic call: inactive; negative
Test System: E.COLI, Strain/Indicator: WP2UVRA, Metabolic Activation: RAT LIVER S-9, PHENOBARBITAL AND BETA-NAPHTHOFLAVONE, Method: PREINCUBATION
  mutagenic call: inactive; negative

## C1=CC2OC2c2ncccc21 (stereo not given)
[3]
  mutagenic call: inactive; negative
Test System: AMES SALMONELLA TYPHIMURIUM, Strain/Indicator: TA100, Metabolic Activation: RAT, LIVER, S-9, AROCLOR 1254 (10% OR 20%), Method: STANDARD PLATE
  mutagenic call: active; positive

## Clc1ccc2cc3ccccc3cc2c1
[1]
  mutagenic call: inactive; negative
[2]
  mutagenic call: active; positive
[3]
  mutagenic call: inactive; negative
[4]
  mutagenic call: inactive; negative
